The subject of the first experiment is NL-RLuc virus. Kind of experiment: Inhibition of HIV replication (NL-RLuc luciferase reporter virus in MT-2 cells). To be noted: Human immunodeficiency virus 1, MT2, 120 h, read-out: Activity. Type of experiment: cell-based. In a few lines:
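The read-out is Renilla luciferase expressed by replication-competent NL-RLuc (nef partly replaced), measured 5 days after infection of MT-2 cells grown with compound dilutions in 10% FBS RPMI. Median effect equation gives EC50 from ≥2 runs; A ≤100 nM, B 100 nM–1 uM, C >1 uM.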
Regarding `Cc1nc(COCc2nc(C)c([C@H](OC(C)(C)C)C(=O)O)c(N3CCC(C)(C)CC3)c2-c2ccc(OCCc3ccc(F)cc3)cc2)sc1C` [Example 20, (S)-2-(tert-Butoxy)-2-(4-(4,4-dimethylpiperidin-1-yl)-6-(((4,5-dimethylthiazol-2-yl)methoxy)methyl)-5-(4-(4-fluorophenethoxy)phenyl)-2-methylpyridin-3-yl)acetic acid], the EC50 was under 0.1 µM.

With `Cc1nc(CNCc2ccccc2)c(-c2ccc(OCCc3ccc(F)cc3)cc2)c(N2CCC(C)(C)CC2)c1[C@H](OC(C)(C)C)C(=O)O` [Example 72, (S)-2-(6-((Benzylamino)methyl)-4-(4,4-dimethylpiperidin-1-yl)-5-(4-(4-fluorophenethoxy)phenyl)-2-methylpyridin-3-yl)-2-(tert-butoxy)acetic acid], the EC50 is under 0.1 µM.

Turning to `Cc1cc(F)ccc1CN1CCc2cc(-c3c(C(C)N(C)CC4CCOCC4)nc(C)c([C@H](OC(C)(C)C)C(=O)O)c3N3CCC(C)(C)CC3)ccc2C1` (single isomer, unassigned) [Example 150], the EC50 is under 0.1 µM.

Regarding `Cc1nc(COC2CCCC2)c(-c2ccc(OCCc3ccc(F)cc3)cc2)c(N2CCC(C)(C)CC2)c1[C@H](OC(C)(C)C)C(=O)O` [Example 11, (S)-2-(tert-Butoxy)-2-(6-((cyclopentyloxy)methyl)-4-(4,4-dimethylpiperidin-1-yl)-5-(4-(4-fluorophenethoxy)phenyl)-2-methylpyridin-3-yl)acetic acid], the EC50 was under 0.1 µM.

In the case of `Cc1cc(F)ccc1CN1CCc2cc(-c3c(CN(C)C)nc(C)c([C@H](OC(C)(C)C)C(=O)O)c3N3CCC(C)(C)CC3)ccc2C1` [Example 115, (S)-2-(tert-Butoxy)-2-(6-((dimethylamino)methyl)-4-(4,4-dimethylpiperidin-1-yl)-5-(2-(4-fluoro-2-methylbenzyl)-1,2,3,4-tetrahydroisoquinolin-6-yl)-2-methylpyridin-3-yl)acetic acid], the EC50 is under 0.1 µM.

As to `Cc1nc(C(F)F)c(-c2ccc(OCCc3ccc(F)cc3)cc2)c(N2CCC(C)(C)CC2)c1[C@H](OC(C)(C)C)C(=O)O` [Example 4, (S)-2-(tert-Butoxy)-2-(6-(difluoromethyl)-4-(4,4-dimethylpiperidin-1-yl)-5-(4-(4-fluorophenethoxy)phenyl)-2-methylpyridin-3-yl)acetic acid], the EC50 was under 0.1 µM.

For `Cc1cc(F)ccc1CN1CCc2cc(-c3c(CN4CCCC(F)C4)nc(C)c([C@H](OC(C)(C)C)C(=O)O)c3N3CCC(C)(C)CC3)ccc2C1` (stereo partly drawn) [Example 131, (2S)-2-(tert-Butoxy)-2-(4-(4,4-dimethylpiperidin-1-yl)-5-(2-(4-fluoro-2-methylbenzyl)-1,2,3,4-tetrahydroisoquinolin-6-yl)-6-((3-fluoropiperidin-1-yl)methyl)-2-methylpyridin-3-yl)acetic acid], the EC50 is under 0.1 µM.

For the compound `Cc1nc(COCC2CCOCC2)c(-c2ccc(OCCc3ccc(F)cc3)cc2)c(N2CCC(C)(C)CC2)c1[C@H](OC(C)(C)C)C(=O)O` [Example 19, (S)-2-(tert-Butoxy)-2-(4-(4,4-dimethylpiperidin-1-yl)-5-(4-(4-fluorophenethoxy)phenyl)-2-methyl-6-(((tetrahydro-2H-pyran-4-yl)methoxy)methyl)pyridin-3-yl)acetic acid], the EC50 was under 0.1 µM.

As to `CC1(C)CCN(c2c([C@H](OC(C)(C)C)C(=O)O)cnc(CO)c2-c2ccc(OCCc3ccc(F)cc3)cc2)CC1` [Example 181, (S)-2-(tert-butoxy)-2-(4-(4,4-dimethylpiperidin-1-yl)-5-(4-(4-fluorophenethoxy)phenyl)-6-(hydroxymethyl)pyridin-3-yl)acetic acid], the EC50 is under 0.1 µM.

Regarding `CC(=O)N(C)Cc1nc(C)c([C@H](OC(C)(C)C)C(=O)O)c(N2CCC(C)(C)CC2)c1-c1ccc(OCCc2ccc(F)cc2)cc1` [Example 101, (S)-2-(tert-Butoxy)-2-(4-(4,4-dimethylpiperidin-1-yl)-5-(4-(4-fluorophenethoxy)phenyl)-2-methyl-6-((N-methylacetamido)methyl)pyridin-3-yl)acetic acid], the EC50 was under 0.1 µM.

Regarding `Cc1nc(CN2CCC(C)(C)CC2)c(-c2ccc(OCCc3ccc(F)cc3)cc2)c(N2CCC(C)(C)CC2)c1[C@H](OC(C)(C)C)C(=O)O` [Example 88, (S)-2-(tert-Butoxy)-2-(4-(4,4-dimethylpiperidin-1-yl)-6-((4,4-dimethylpiperidin-1-yl)methyl)-5-(4-(4-fluorophenethoxy)phenyl)-2-methylpyridin-3-yl)acetic acid], the EC50 is under 0.1 µM.

With `CCOCc1nc(C)c([C@H](OC(C)(C)C)C(=O)O)c(N2CCC(C)(C)CC2)c1-c1ccc2c(c1)CCN(Cc1ccc(F)cc1C)C2` [Example 156, (S)-2-(tert-Butoxy)-2-(4-(4,4-dimethylpiperidin-1-yl)-6-(ethoxymethyl)-5-(2-(4-fluoro-2-methylbenzyl)-1,2,3,4-tetrahydroisoquinolin-6-yl)-2-methylpyridin-3-yl)acetic acid], the EC50 was under 0.1 µM.

Regarding `Cc1ncc(-c2ccc(OCCc3ccc(F)cc3)cc2)c(N2CCC(C)(C)CC2)c1[C@H](OC(C)(C)C)C(=O)O` [Example 63, (S)-2-(tert-Butoxy)-2-(4-(4,4-dimethylpiperidin-1-yl)-5-(4-(4-fluorophenethoxy)phenyl)-2-methylpyridin-3-yl)acetic acid], the EC50 was under 0.1 µM.

As to `Cc1nc(COc2cccc(Cl)c2)c(-c2ccc(OCCc3ccc(F)cc3)cc2)c(N2CCC(C)(C)CC2)c1[C@H](OC(C)(C)C)C(=O)O` [Example 15, (S)-2-(tert-Butoxy)-2-(6-((3-chlorophenoxy)methyl)-4-(4,4-dimethylpiperidin-1-yl)-5-(4-(4-fluorophenethoxy)phenyl)-2-methylpyridin-3-yl)acetic acid], the EC50 is under 0.1 µM.

As for `Cc1cccc(Cl)c1CN1CCc2cc(-c3c(CN4CCCC4)nc(C)c([C@H](OC(C)(C)C)C(=O)O)c3N3CCC(C)(C)CC3)ccc2C1` [Example 176, (S)-2-(tert-Butoxy)-2-(5-(2-(2-chloro-6-methylbenzyl)-1,2,3,4-tetrahydroisoquinolin-6-yl)-4-(4,4-dimethylpiperidin-1-yl)-2-methyl-6-(pyrrolidin-1-ylmethyl)pyridin-3-yl)acetic acid], the EC50 was under 0.1 µM.

On to `CNCc1nc(C)c([C@H](OC(C)(C)C)C(=O)O)c(N2CCC(C)(C)CC2)c1-c1ccc2c(c1)CCN(Cc1ccc(F)cc1C)C2` [Example 114, (S)-2-(tert-Butoxy)-2-(4-(4,4-dimethylpiperidin-1-yl)-5-(2-(4-fluoro-2-methylbenzyl)-1,2,3,4-tetrahydroisoquinolin-6-yl)-2-methyl-6-((methylamino)methyl)pyridin-3-yl)acetic acid], for which the EC50 was under 0.1 µM.

`CC(=O)N(C)Cc1nc(C)c([C@H](OC(C)(C)C)C(=O)O)c(N2CCC(C)(C)CC2)c1-c1ccc2c(c1)CCN(Cc1ccc(F)cc1C)C2` [Example 143, (S)-2-(tert-Butoxy)-2-(4-(4,4-dimethylpiperidin-1-yl)-5-(2-(4-fluoro-2-methylbenzyl)-1,2,3,4-tetrahydroisoquinolin-6-yl)-2-methyl-6-((N-methylacetamido)methyl)pyridin-3-yl)acetic acid]: the EC50 was under 0.1 µM.

Still in this experiment, the particulars now being: Human immunodeficiency virus 1, MT2, 120 h, read-out: EC50 μM.
With `Cc1nc(COc2cccc(Cl)c2)c(-c2ccc(OCCc3ccc(F)cc3)cc2)c(N2CCC(C)(C)CC2)c1[C@H](OC(C)(C)C)C(=O)O` [Example 15, (S)-2-(tert-Butoxy)-2-(6-((3-chlorophenoxy)methyl)-4-(4,4-dimethylpiperidin-1-yl)-5-(4-(4-fluorophenethoxy)phenyl)-2-methylpyridin-3-yl)acetic acid], the EC50 stood at 0.051 µM.
